Reference: patent EP0407651A2, “Use of 1,3-diisobutyl-8-methylxanthine as a bronchodilator and antiallergy agent” (J. URIACH & CIA. S.A., priority 1989, dated 1991)

Key:
[1] = system: Isolated guinea pig trachea; test: Isolated guinea pig trachea relaxation (spontaneous tonus, organ bath); format: cell-based; settings: Cavia porcellus; 50% relaxation of spontaneous tonus; relaxation by 1 mcM isoprenaline = 100%; read-out: Guinea pig trachea EC₅₀
Procedure: This in vitro test was carried out according to the method of Emmerson and Mackay (J. Pharm. Pharmacol. 1979, 31, 798). The trachea was excised from guinea pigs, placed in Krebs Henseleit's solution at 37°C and gassed with 95% O₂ and 5% CO₂. The trachea strip was mounted in an organ bath and attached to a tension transducer preloaded with […]. Test compounds were cumulatively added to the organ bath and concentrations causing 50% relaxation of the spontaneous tonus of the tracheal tissue (EC₅₀) were calculated (Table 1). The relaxation induced by 1 mcM isoprenaline was taken as 100%.

[2] = system: Histamine-induced bronchospasm in anaesthetized guinea pigs; test: Histamine-induced bronchospasm in anaesthetized guinea pigs (Konzett and Rössler); format: in vivo; settings: histamine 10 mcg/Kg i.v., test compound i.p., maximum inhibitory effect at 10, 30, 60 min
Procedure: This test was performed in anaesthetized animals according to the method of Konzett and Rössler (Arch. Exp. Pathol.Pharmacol. 1940, 195, 71). The activity was determined by calculating the dose of the active compound required to produce 50% inhibition of the bronchospasm (ID₅₀) (Table 1). Histamine was given intravenously at 10 mcg/Kg, before and 10, 30 and 60 minutes after intraperitoneal administration of test compounds. Maximum inhibitory effects were taken for calculation of ID₅₀ values.

[3] = system: Histamine aerosol-induced bronchospasm; test: Histamine aerosol-induced bronchospasm in conscious guinea pigs (protection from death); format: in vivo; settings: for Histamine bronchospasm Hist. aerosol PC₅₀ (inhal) / Histamine bronchospasm Hist. aerosol PD₅₀ (oral): conscious guinea pigs; for Histamine bronchospasm Hist. aerosol PC₅₀ (inhal): ethanolic solution nebulized 1 mL/min for 2 min, histamine challenge 3 min later, concentration protecting 50% from lethality; for Histamine bronchospasm Hist. aerosol PD₅₀ (oral): one hour before histamine aerosol (0.2%), dose protecting 50% of animals from death; for Protection from death % / Protection from death n/N: formulation B by inhalation; for Protection from death n/N: survivors versus total number of animals
Procedure: This test is based on the methods of Van P+roosdif-Hartzema (Inter. Ppharmacodynamic 1958, 115, 322) and Loew (J. Pharmac.Exp.Ther. 1945, 83, 120) with slight modifications. Thus, conscious guinea pigs were subjected to inhalation of histamine (0.2% aqueous solution) nebulized by an ultrasonic device (DeVilvis™, Ultra-Neb 99) during 30 seconds in a cylindric plastic chamber of 15 liters of volume, at a rate of 1 mL/min. Test compounds were given orally, one hour before the challenge of histamine, and the dose needed to protect from death 50% of the animals was determined (PD₅₀) (Table 1).
Using the same model, test compounds were also given by inhalation. They were dissolved in ethanol at different concentrations (0.45 mM to 28mM) and aerosolized by the ultrasonic nebulizer mentioned above at a rate of 1 mL/min, during 2 minutes. Three minutes later, the animals were subjected to the challenge of histamine and PC₅₀ values were determined (Table 1). Controls were subjected to inhalation of the vehicle (ethanol). PC₅₀ value is defined as the concentration of test compound in the ethanolic solution that protects 50% of animals from lethality when nebulized as indicated above.
Finally, studies have been made subjecting the animals to inhalation of one or more puffs of 5 mg/mL of 1,3-diisobutyl-8-methylxanthine (UR-6032) solution formulation B (see Example 1). Animals were forced to inhale UR-6032 for 5 minutes into the cylindric plastic chamber before the challenge with ultrasonic nebulized histamine (see above) and protection from death with respect to controls was determined (Table 2).

[4] = system: rat peritoneal mast cell preparations; test: Histamine release induced by compound 48/80 in rat mast cell preparations; format: cell-based; settings: 20 min, 1 mM test compound, compound 48/80 10⁻⁶ M, 37°C, read-out: Histamine release % inhib. at 1 mM
Procedure: Anaesthetized rats were bled by cardiac puncture and then 10 mL of Tyrode's-gel solution (0.1% gelatine in Tyrode's buffer, pH 7.2) containing 50 mcg heparin was injected into the peritoneal cavity. Alter a gentle massage of the abdomen, the peritoneal cell suspension was harvested. Mast cells were suspended in Tyrode's solution (10⁶ cells/mL). Aliquots of 0.2 mL of the mast cell suspension were incubated at 37°C for 20 minutes with 10 mcL of compound 48/80 (10⁻⁶ M final concentration), a potent histamine release inducer. The reaction was stopped by introducing the tubes in a ice-ethanol bath. The cells were sedi-mented by centrifugation and the histamine in the supernatant was determined by the fluorimetric method of May (J. Allergy, 1970, 46, 12). The sedimented pellets were treated with 0.1 N HCl at 100°C to liberate the non-released histamine and to determine it by the same method of May. Test compounds were added to the incubation medium dissolved in Tyrode's buffer at different concentrations (final volume: 1 mL). Control samples contained the same volume of Tyrode's buffer. The histamine release in the control samples was taken as 100%, and the percentage of the histamine release inhibition of test samples was calculated with respect to controls. (Table 3).

[5] = system: Egg albumin-induced bronchospasm in sensitized guinea pigs; test: Egg albumin-induced bronchospasm in sensitized guinea pigs (Konzett and Rössler); format: in vivo; settings: egg albumin 0.06% w/v, 1 mL/Kg i.v., one minute after test compound
Procedure: The experimental procedure of Konzett and Rössler was followed (Arch. Exp. Pathol.Pharmacol. 1940, 195, 71). A single intravenous injection of 1 mL/Kg of egg albumin (0.06%, w/v) was given to sensitized animals one minute after intravenous administration of UR-6032 at different concentrations.

[6] = system: Passive cutaneous anaphylaxis reaction (PCA); test: Passive cutaneous anaphylaxis reaction (PCA) in the rat; format: in vivo; settings: 30 minutes before egg albumin and Evans' blue challenge
Procedure: The animals were passively sensitized by intradermal injection of 0.1 mL of five-fold diluted rat reagenic antiserum. Injections were made at 4 locations on the shaved back skin and 48 h later the test drug was administered intraperitoneally. Thirty minutes later, the animals were challenged by intravenous injection of egg albumin and Evans' blue dye. The dermal reaction was measured colorimetrically by the method of Harata (J.Pharm.Pharmac., 1971, 23, 218) as the extent of the blueing reaction at the sensitized intradermal injection site, and the percent inhibition values with respect to controls were calculated (Table 3).

[7] = Acute oral toxicity in rats; format: in vivo; settings: both sexes rats

SMILES	EC50 [1] [nM]	Histamine bronchospasm Hist. i.v. ID₅₀ [2]	Histamine bronchospasm Hist. aerosol PC₅₀ (inhal) [3]	Histamine bronchospasm Hist. aerosol PD₅₀ (oral) [3] [mg/kg]	Protection from death % ([3]; 1 puff) [%]	Protection from death n/N ([3]; 1 puff)	Protection from death % ([3]; 2 puffs) [%]	Protection from death n/N ([3]; 2 puffs)	Protection from death % ([3]; 3 puffs) [%]	Protection from death n/N ([3]; 3 puffs)	active doses given by inhalation ([3]; inhalation) [mg/animal]	inhibition at 1000 µM [4] [%]	Egg albumin bronchospasm ID₅₀ [5]	PCA % inhibition at 2.5 mg/Kg,i.p. [6] [%]	acute oral toxicity [7] [mg/kg]
Cc1nc2c([nH]1)c(=O)n(CC(C)C)c(=O)n2CC(C)C [UR-6032, 1,3-diisobutyl-8-methylxanthine]	100	0.36 mg/Kg,i.p.	0.5 mM	1	80	4/5	100	3/3	100	3/3	< 0.5	56	0.5-1 mg/Kg,i.p.	39	50
Cn1c(=O)c2[nH]cnc2n(C)c1=O [Theophylline, 1,3-dimethylxanthine]	31000	4.90 mg/Kg,i.p.	25 mM	> 100								25		8	
CC(C)Cn1c(=O)n(C)c(=O)c2[nH]cnc21 [IBMX, 1-methyl-3-isobutylxanthine]	1100	2.50 mg/Kg,i.p.	^b 15-20 mM									37		86	
